Source: patent US7179887B2, “Guinea pig proteinase-activated receptor 4 and its activating peptide” (Ortho-McNeil Pharmaceutical, Inc., priority 2001, dated 2007)
Residues, ends and D or L forms follow the SMILES beside them. No end group written: not given here.

Columns and labels:
[1] = tested on: guinea pig gel filtered platelets
Method: (§1) Human platelet-rich plasma (PRP) concentrate (Biological Specialties, Inc., Colmar, Pa.) was gel-filtered (Sepharose 2B, Pharmacia, Inc.) in Tyrode's buffer (140 mM NaCl, 2.7 mM KCl, 12 mM NaHCO3, 0.76 mM Na2HPO4, 5.5 mM dextrose, 5.0 mM Hepes, and 2 mg/ml BSA, pH 7.4). Guinea pigs (400–800 g) were anesthetized and blood drawn via an intraarterial catheter. PRP was prepared by centrifugation at 200×g for 10 min. Guinea pig PRP was gel-filtered as above. Gel-filtered platelets were diluted with Tyrode's buffer (143,000 platelets/μl, per well) and 2 mM CaCl2 in a 96-well microtiter plate. Platelet aggregation was initiated by the addition of the guinea pig PAR-4 AP (SFPGQA-NH2, SEQ ID No.:7) peptide. The assay plate was gently mixed constantly. Aggregation was monitored at 0 and 5 min after agonist addition in a microplate reader (Molecular Devices) by optical density at 650 nm (ΔSOFT). Aggregation was calculated as the decrease in optical density between the two measurements. All samples were tested in duplicate wells on the same plate.

[2] = tested on: human gel filtered platelets; details: for induction of human platelet aggregation / activation of human PAR-4 (in words): human platelets
Method: as §1

[3] = tested on: guinea pig gel filtered platelets; details: Nishikawa et al. (2000); cited from earlier work
[4] = tested on: human gel filtered platelets; details: background statement; cited from earlier work

Compound: C[C@H](NC(=O)[C@H](CCC(N)=O)NC(=O)CNC(=O)[C@@H]1CCCN1C(=O)[C@H](Cc1ccccc1)NC(=O)[C@@H](N)CO)C(N)=O [guinea pig PAR-4 AP, SFPGQA-NH2] (H-SFPGQA-NH2; N-terminus assumed)
- EC50 [1]: 174 ± 14.6 µM
- EC50 [2]: 140 ± 2.5 µM
- induction of human platelet aggregation / activation of human PAR-4 (in words) [2]: cross-activates human PAR-4

Compound: GYPGKF-NH2 [murine PAR-4 AP]
- response of guinea pig platelets to activating peptide (literature) [3]: do not respond

Compound: GYPGQV-NH2 [human PAR-4 AP]
- induction of human platelet aggregation / activation of human PAR-4 (in words) [2]: induced human platelet aggregation

Compound: SFLLRN-NH2 [human PAR-1 AP]
- aggregation of human platelets by exogenous activating peptide (background) [4]: aggregation of human platelets can be reproduced
- induction of guinea pig platelet aggregation / response of guinea pig PAR-4 (in words) ([1]; isolated guinea pig platelets): induced guinea pig platelet aggregation
- induction of human platelet aggregation / activation of human PAR-4 (in words) [2]: induced human platelet aggregation
